Values of other authors in patent publication US20030087843A1, “O-pyrazole glucoside SGLT2 inhibitors and method of use” (priority 2001, published 2003).

Experiments:
[1] = system: facilitative glucose transporters (GLUTs)
[2] = normal animals, despite the presence of glycosuria
[3] = oral
human SGLT1 = biological target: T1, human SGLT1 (Homo sapiens, UniProt P13866); settings: read-out: Km for uptake of AMG
T1 sequence (P13866 1-664): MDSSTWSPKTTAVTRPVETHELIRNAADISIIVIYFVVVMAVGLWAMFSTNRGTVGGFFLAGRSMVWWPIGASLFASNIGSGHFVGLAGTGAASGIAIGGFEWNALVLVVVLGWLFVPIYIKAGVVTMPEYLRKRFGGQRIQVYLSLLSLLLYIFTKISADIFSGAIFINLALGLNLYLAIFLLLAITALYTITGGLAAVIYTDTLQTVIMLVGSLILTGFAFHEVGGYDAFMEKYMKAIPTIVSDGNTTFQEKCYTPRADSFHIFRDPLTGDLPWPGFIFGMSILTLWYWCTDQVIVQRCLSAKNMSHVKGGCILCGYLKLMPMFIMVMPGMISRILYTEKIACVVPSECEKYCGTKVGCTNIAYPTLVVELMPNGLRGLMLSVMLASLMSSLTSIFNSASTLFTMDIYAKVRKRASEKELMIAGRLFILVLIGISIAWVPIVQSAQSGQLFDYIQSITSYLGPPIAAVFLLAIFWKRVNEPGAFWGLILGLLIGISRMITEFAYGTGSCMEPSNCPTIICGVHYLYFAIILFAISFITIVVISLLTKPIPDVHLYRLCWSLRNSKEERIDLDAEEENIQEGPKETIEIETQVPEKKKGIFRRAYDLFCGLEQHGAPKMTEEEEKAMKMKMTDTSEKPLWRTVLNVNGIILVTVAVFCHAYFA

human SGLT2 = biological target: T2, human SGLT2 (Homo sapiens, UniProt P31639); settings: read-out: Km for uptake of AMG
T2 sequence (P31639 1-672): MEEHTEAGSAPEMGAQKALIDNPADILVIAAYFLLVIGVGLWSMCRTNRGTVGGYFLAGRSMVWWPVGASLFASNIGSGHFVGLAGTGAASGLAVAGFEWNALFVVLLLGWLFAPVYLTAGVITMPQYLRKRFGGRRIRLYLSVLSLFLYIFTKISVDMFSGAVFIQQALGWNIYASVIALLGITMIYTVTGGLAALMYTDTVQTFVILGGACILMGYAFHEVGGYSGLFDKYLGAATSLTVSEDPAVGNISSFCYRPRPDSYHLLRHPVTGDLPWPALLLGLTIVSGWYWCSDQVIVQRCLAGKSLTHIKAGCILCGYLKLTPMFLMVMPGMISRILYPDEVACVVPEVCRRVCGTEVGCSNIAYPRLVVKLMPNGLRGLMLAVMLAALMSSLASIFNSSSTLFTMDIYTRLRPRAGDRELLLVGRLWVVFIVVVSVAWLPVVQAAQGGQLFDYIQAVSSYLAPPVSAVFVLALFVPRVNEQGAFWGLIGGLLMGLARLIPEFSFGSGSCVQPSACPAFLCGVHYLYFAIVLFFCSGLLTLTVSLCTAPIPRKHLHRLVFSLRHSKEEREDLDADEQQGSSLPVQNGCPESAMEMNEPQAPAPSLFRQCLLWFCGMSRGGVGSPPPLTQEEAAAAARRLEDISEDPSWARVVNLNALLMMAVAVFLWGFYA

[4] = diabetic rodent models and one canine diabetes model

Compound: O=C(CCc1ccc(O)cc1)c1c(O)cc(O)cc1O [phloretin]
- inhibition of facilitated glucose transport [1]: potent inhibitor

Compound: O=C(CCc1ccc(O)cc1)c1c(O)cc(O)cc1O[C@@H]1O[C@H](CO)[C@@H](O)[C@H](O)[C@H]1O [phlorizin]
- fasting and fed plasma glucose (SGLT2 activity; [4]): lowering fasting and fed plasma glucose
- glucose excretion (SGLT2 activity; [4]): promoting glucose excretion
- hypoglycemic side effects (SGLT2 activity; [4]): without hypoglycemic side effects
- adverse effects on plasma ion balance, renal function or renal morphology (SGLT2 activity; treatment for as long as two weeks): No adverse effects
- hypoglycemic or other adverse effects [2]: no hypoglycemic or other adverse effects
- hydrolysis in the gut [3]: hydrolyzed in the gut to its aglycone phloretin

Compound: CO[C@H]1O[C@H](CO)[C@@H](O)[C@H](O)[C@H]1O [AMG, α-methyl-D-glucopyranoside]
- Km (human SGLT1): 400 µM
- Km (human SGLT2): 1600 µM
